Among the data in ChEMBL document CHEMBL3044920, “Progress in understanding molecular mechanisms and evolution of resistance to succinate dehydrogenase inhibiting (SDHI) fungicides in phytopathogenic fungi” (Crop Prot, 2010) are EC50 and inhibition values, retold here.

Experiment [1] deals with Alternaria alternata. As to the kind of experiment: Antifungal activity against boscalid-resistant Alternaria alternata isolate Aa122 expressing AaSDHC H134R mutant. Type of experiment: functional, organism-based.
The test system of experiment [2] is Alternaria alternata. Put plainly: Antifungal activity against boscalid-resistant Alternaria alternata isolate Aa111 expressing AaSDHB H277Y mutant. The experiment is classed as functional, organism-based.
The subject of experiment [3] is Alternaria alternata. As to the kind of experiment: Antifungal activity against boscalid-resistant Alternaria alternata isolate Aa29 expressing AaSDHB H277Y mutant. Type of experiment: functional, organism-based.
The subject of experiment [4] is Alternaria alternata. Put plainly: Antifungal activity against wild type Alternaria alternata isolate Aa16. The experiment is classed as functional, organism-based.
For experiment [5], the system named is Alternaria alternata. Put plainly: Antifungal activity against boscalid-resistant Alternaria alternata expressing AaSDHD H133R mutant assessed as inhibition of mycelial growth at 10 ppm relative to untreated control. The experiment is classed as functional.
The subject of experiment [6] is Alternaria alternata. As to the kind of experiment: Antifungal activity against boscalid-resistant Alternaria alternata expressing AaSDHC H134R mutant assessed as inhibition of mycelial growth at 10 ppm relative to untreated control. The experiment is classed as functional.
In experiment [7] the test system is Alternaria alternata. Put plainly: Antifungal activity against boscalid-resistant Alternaria alternata expressing AaSDHB H277Y mutant assessed as inhibition of mycelial growth at 10 ppm relative to untreated control. The experiment is classed as functional.
Experiment [8] has as its system Alternaria alternata. As to the kind of experiment: Antifungal activity against wild type Alternaria alternata assessed as inhibition of mycelial growth at 10 ppm relative to untreated control. Type of experiment: functional.
Experiment [9] concerns Botrytis cinerea. As to the kind of experiment: Antifungal activity against resistant Botryotinia fuckeliana isolates obtained from excessive treatment with Signum. The experiment is classed as functional, organism-based.

A value given as a limit tells only on which side of the number the result lay.

With `O=C(Nc1ccccc1-c1ccc(Cl)cc1)c1cccnc1Cl` [BOSCALID], the EC50 is reported as above 50 ppm in experiment [1]; above 50 ppm in experiment [2]; above 50 ppm in experiment [3]; 0.5 ppm in experiment [4]; above 100 ppm in [9]. In addition, the inhibition (in general, the share of the control response that was lost under treatment) at 10 ppm was 47.5% in [5], 31.9% in experiment [6], 30.7% in experiment [7] and 87.2% in experiment [8].
Take `CC(C)CC(C)c1sccc1NC(=O)c1cn(C)nc1C(F)(F)F` (racemic) [PENTHIOPYRAD]: the inhibition at 10 ppm is 88.7% in experiment [5], 85.1% in experiment [6], 90.5% in experiment [7] and 89.7% in experiment [8].
Regarding `O=C(NCCc1ncc(C(F)(F)F)cc1Cl)c1ccccc1C(F)(F)F` [FLUOPYRAM], the EC50 in [1] is 5 ppm; in [2] it was 0.25 ppm; in experiment [3], 0.25 ppm; in experiment [4], below 0.25 ppm. Moreover, the inhibition at 10 ppm in experiment [5] worked out at 16.9%; in experiment [6], 11.3%; in experiment [7] it was 41.3%; in [8], 83%.
